Assays:
[1] = clinical; assay type: in vivo, human
Description: The patient's diagnosis were CRC (7), breast (3), gastric (3) and other (4).
A total of 17 patients were entered in this pharmacokinetic study after informed consent.
Blood was sampled during 24 hours. […] Blood samples were taken by venipuncture in heparinized tubes of 9 ml and transported on ice for immediate processing.
Blood samples were centrifuged for 5 min at 4000 rpm and 4° C. The plasma was transferred to 2 eppendorf vials of 2 ml and stored at −20° C.
Analysis for tegafur and cyanuric acid was performed by validated HPLC assays, while the analysis of the other compounds was performed after derivatization by validated gas-chromatography-mass spectrometry methods as described previously [Peters G. J., Noordhuis P., Van Kuilenburg A. B. P., Schornagel J. H., Gall H., Turner S. L., Swart M. S., Voorn D., Van Gennip A. H., Wanders J., Holwerda U., Smid K., Giaccone G., Fumoleau P. and Van Groeningen C. […] Cancer Chemother. Pharmacol., 38: 1-12, 2003.].
The pharmacokinetic parameters for tegafur, 5FU, oxonic acid, cyan uric acid, and CDHP were calculated with the computer program WinNonLin (version 1.5). The data were analyzed using non-compartment modeling. The parameters that could be established were: time point of maximum observed concentration in plasma (Tmax), concentration in plasma corresponding to Tmax (Cmax), terminal half-life (t½), area under the plasma concentration versus time (C-t) curve (AUCall).

[2] = target: T1, dihydropyrimidine dehydrogenase (DPD) (Homo sapiens, UniProt Q12882); experiment: Inhibition of dihydropyrimidine dehydrogenase; assay type: biochemical; details: vs uracil
T1 sequence (Q12882 4-1025): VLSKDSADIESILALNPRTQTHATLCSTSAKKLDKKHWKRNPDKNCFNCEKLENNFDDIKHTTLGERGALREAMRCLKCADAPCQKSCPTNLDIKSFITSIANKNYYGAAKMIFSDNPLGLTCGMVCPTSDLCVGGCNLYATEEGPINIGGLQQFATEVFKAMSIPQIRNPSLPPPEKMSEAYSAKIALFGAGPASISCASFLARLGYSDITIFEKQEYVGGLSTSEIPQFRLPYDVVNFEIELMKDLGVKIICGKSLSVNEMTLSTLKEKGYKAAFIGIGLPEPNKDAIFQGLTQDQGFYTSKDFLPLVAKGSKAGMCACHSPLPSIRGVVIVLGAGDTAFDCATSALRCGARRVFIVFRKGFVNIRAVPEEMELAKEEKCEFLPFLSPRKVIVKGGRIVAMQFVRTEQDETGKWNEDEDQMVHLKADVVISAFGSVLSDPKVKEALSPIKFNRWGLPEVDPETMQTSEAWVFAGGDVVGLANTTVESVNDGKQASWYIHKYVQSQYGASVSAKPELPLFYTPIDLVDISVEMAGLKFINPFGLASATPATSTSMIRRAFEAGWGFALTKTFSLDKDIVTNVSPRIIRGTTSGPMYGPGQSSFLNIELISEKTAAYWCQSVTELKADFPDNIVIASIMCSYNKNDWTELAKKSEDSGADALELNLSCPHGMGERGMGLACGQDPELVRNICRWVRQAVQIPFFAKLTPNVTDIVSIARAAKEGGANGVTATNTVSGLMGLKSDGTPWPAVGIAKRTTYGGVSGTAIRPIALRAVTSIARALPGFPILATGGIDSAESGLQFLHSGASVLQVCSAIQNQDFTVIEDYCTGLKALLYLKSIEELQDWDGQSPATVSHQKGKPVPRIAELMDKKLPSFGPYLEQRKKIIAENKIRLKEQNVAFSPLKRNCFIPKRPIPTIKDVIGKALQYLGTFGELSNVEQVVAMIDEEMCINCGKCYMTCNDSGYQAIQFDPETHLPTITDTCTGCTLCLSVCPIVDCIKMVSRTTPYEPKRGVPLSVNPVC
From the text: It is gradually converted to 5-FU in vivo. • CDHP inhibits the catabolism of 5-FU by reversibly inhibiting the enzyme of dihydropyrimidine dehydrogenase (DPD). […] CDHP helps maintain effective blood and tumor concentrations of 5-FU for a prolonged period thus potentially achieving a similar therapeutic effect as protracted infusion of 5-FU. • Oxo blocks phosphorylation of 5-FU by orotate phosphoribosyltransferase (OPRT) in the gastrointestinal tract. […] Oxo is acid labile and thus its bioavailability is affected by food intake.

[3] = test system: advanced gastric cancer; details: in vivo
[4] = human, in vivo, po, 35 mg/m2, AUCall
[5] = human, in vivo, po, 35 mg/m2, Cmax
[6] = human, in vivo, po, 35 mg/m2, t½
[7] = human, in vivo, po, 35 mg/m2, Tmax
[8] = comparison fasting vs feeding group, S-1 35 mg/m^2

| SMILES | AUC [1, 4] | Cmax [1, 5] | half-life [1, 6] | Tmax, without breakfast vs after breakfast ([1]; in vivo) | t½, fasting vs feeding group ([1]; in vivo) | Tmax [1, 7] | other results |
| --- | --- | --- | --- | --- | --- | --- | --- |
| O=c1[nH]c(=O)n(C2CCCO2)cc1F (racemic) [FT, 5-Fluoro-1-[(RS)-tetrahydrofuran-2-yl]pyrimidine-2,4-(1H,3H)-dione, reference compound] | 15700 ng·h/mL | 2370 ng/mL | 8.6 h | earlier without breakfast | no significant difference |  | Tmax ([1]; human, in vivo, po, 35 mg/m2): 0.6 h |
| O=c1[nH]cc(F)c(=O)[nH]1 [5-FU, 5-fluorouracil, reference compound] | 1100 ng·h/mL | 210 ng/mL | 2.2 h | reached earlier without breakfast | no significant difference | 1.8 h |  |
| O=c1[nH]c(=O)[nH]c(=O)[nH]1 [CA, cyanuric acid] |  |  |  |  |  |  | AUCall, fasting vs feeding group [1, 8]: higher values in the feeding group as compared to the fasting group; Cmax, fasting vs feeding group [1, 8]: not significantly different; Tmax, without breakfast vs after breakfast [1, 8]: faster Tmax without breakfast; t½, fasting vs feeding group [1, 8]: not significantly different; AUC ([1]; human, in vivo, po, 35 mg/m2, plasma, mean, S-1 35 mg/m^2 oral, fasted patients, read-out: AUCall): 517 ng·h/mL; Cmax ([1]; human, in vivo, po, 35 mg/m2, plasma, mean, S-1 35 mg/m^2 oral, fasted patients, read-out: Cmax): 118 ng/mL; Tmax ([1]; human, in vivo, po, 35 mg/m2, plasma, mean, S-1 35 mg/m^2 oral, fasted patients, read-out: Tmax): 1.3 h; half-life ([1]; human, in vivo, po, 35 mg/m2, plasma, mean, S-1 35 mg/m^2 oral, fasted patients, read-out: t½ (converted)): 5.3 h; AUC ([1]; human, in vivo, po, 35 mg/m2, plasma, mean, S-1 35 mg/m^2 oral, fed patients, read-out: AUCall): 1220 ng·h/mL; Cmax ([1]; human, in vivo, po, 35 mg/m2, plasma, mean, S-1 35 mg/m^2 oral, fed patients, read-out: Cmax): 160 ng/mL; Tmax ([1]; human, in vivo, po, 35 mg/m2, plasma, mean, S-1 35 mg/m^2 oral, fed patients, read-out: Tmax): 3.5 h; half-life ([1]; human, in vivo, po, 35 mg/m2, plasma, mean, S-1 35 mg/m^2 oral, fed patients, read-out: t½ (converted)): 6.7 h |
| Oc1cc(O)c(Cl)cn1 [CDHP, 5-chloro-2,4-dihydroxypyridine] | 1920 ng·h/mL | 464 ng/mL | 4.5 h | reached earlier without breakfast | no significant difference | 1.1 h | potency of DPD inhibition relative to uracil [2]: 180 fold |
| O=C(O)c1nc(=O)[nH]c(=O)[nH]1 [Oxo, potassium oxonate] |  |  | 3.9 h | significantly faster without breakfast | not significantly different | 1.6 h | effect of food on bioavailability ([1]; human, in vivo, po): profound effect; AUCall ([1]; human, in vivo, po, 35 mg/m2): 808.7 ng·h/mL; Cmax ([1]; human, in vivo, po, 35 mg/m2): 158.1 ng/mL |
| N.N.[Cl][Pt][Cl] [cisplatin] |  |  |  |  |  |  | recommended dose for the phase II portion [3]: 60 mg/m^2 |

From patent US20080166427A1, “Method for Reducing Gastrointestinal Toxicity Due to the Administration of Tegafur” (Taiho Pharmaceutical Co., Ltd, priority 2004, published 2008)
